Data: patent publication US11007269B2, “P53 degradation inducing molecule and pharmaceutical composition” (Tokyo University of Science Foundation, priority 2016, dated 2021)

Molecular target: T1, endogenous wild-type p53 protein (Mus musculus, UniProt P02340)
T1 construct: from tissue; host or cells: liver of C57BL/6J wild-type mice
Experiment: Western blot of wild-type p53 protein in liver of mice given the compound
Assay type: in vivo
Conditions: C57BL/6J mice, 48 hours after administration
Description: In Example 4, degradation (knockdown) of the endogenous wild-type p53 protein and MDM2 protein in mouse individuals in which TIBC-CANDDY_MLN had been administered was evaluated by Western blot analysis.
TIBC-CANDDY_MLN was dissolved in DMSO immediately before administration, and then dissolved in corn oil (Code No. 25606-55, Nacalai Tesque) so that the concentration of DMSO was 10 vol %, and then a dose of 50 mg/kg body weight or 100 mg/kg body weight was administered intraperitoneally to C57BL/6J wild-type mice (7 to 8 weeks old, male) (CLEA Japan, Inc.) (n=3). As a control, an injection carrier (corn oil containing 10 vol % DMSO) was used. The mice were kept under an environment of ad libitum access to food and water. […]
The frozen tissue (0.04 g) was triturated, and then 980 μL of 1×TKM tissue lysis buffer (50 mM triethanolamine (pH 7.8), 50 mM KCl, 5 mM MgCl2, 0.25 M sucrose, 1 mM PMSF, protein inhibitors cocktail-EDTA free (Code No. 03969-21, Nacalai Tesque), 1 mM DTT, Recombinant RNase inhibitor 5 μl/mL (40 U/μl, Cat No. 2313A, Lot No. K8402DA, TAKARA Bio)) was added, and dissolved by rotation for 15 minutes (1 rpm, 25° C.). […] The concentration of proteins in the tissue extract was quantified with a spectrophotometer with the tissue extract that had been diluted 20 times using DEPC-treated water. […]

T1 sequence (P02340 whole entry): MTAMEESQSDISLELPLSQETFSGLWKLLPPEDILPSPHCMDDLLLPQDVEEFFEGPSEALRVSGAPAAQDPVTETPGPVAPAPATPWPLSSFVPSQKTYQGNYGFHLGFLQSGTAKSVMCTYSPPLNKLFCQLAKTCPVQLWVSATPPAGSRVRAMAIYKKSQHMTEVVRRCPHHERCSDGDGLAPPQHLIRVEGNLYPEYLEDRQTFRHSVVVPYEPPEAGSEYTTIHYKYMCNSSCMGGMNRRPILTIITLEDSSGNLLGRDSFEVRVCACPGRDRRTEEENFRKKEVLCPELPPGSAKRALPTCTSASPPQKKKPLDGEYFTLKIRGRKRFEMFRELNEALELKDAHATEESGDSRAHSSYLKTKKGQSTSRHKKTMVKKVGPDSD

- amount of endogenous wild-type p53 protein in the liver (50 mg/kg body weight intraperitoneally): reduced
- amount of endogenous wild-type p53 protein in the liver (100 mg/kg body weight intraperitoneally): reduced
Compound: CC(C)C[C@H](NC(=O)CNC(=O)c1cc(Cl)ccc1Cl)C(=O)NCCCCCCC(=O)Nc1ccc(C(=O)/C=C/c2ccc(I)cc2)cc1 [TIBC-CANDDY_MLN]
